The series can be described thus: Solubility of paclitaxel and docetaxel in triglycerides. The class given is physicochemical. As to conditions: no recrystallization at room temperature; for Solubility in Labrafac CC: triglyceride Labrafac CC, C8 content 56.7%; for Solubility in Miglyol 810 N: triglyceride Miglyol 810 N, C8 content 70.4%; for Solubility in Tricaprylin: triglyceride Tricaprylin, C8 >99%. As for the experimental part: A solution of docetaxel or paclitaxel in triglycerides, which will constitute the inner core of the lipid nanocapsules, is prepared by dissolving the drug into the triglyceride at 75° C. The amount of drug is adjusted in order to obtain solutions that will not recrystallize upon cooling to room temperature.

This is an account of results in patent US20050214378A1, “Stealth lipid nanocapsules, methods for the preparation thereof and use thereof as a carrier for active principle(s)” (ETHYPHARM, priority 2002, published 2005).

Structures are written as SMILES.

In the case of `CC(=O)O[C@@]12CO[C@@H]1C[C@H](O)[C@@]1(C)C(=O)[C@H](O)C3=C(C)[C@@H](OC(=O)[C@H](O)[C@@H](NC(=O)OC(C)(C)C)c4ccccc4)C[C@@](O)([C@@H](OC(=O)c4ccccc4)[C@H]21)C3(C)C` [Docetaxel, docetaxel], the “Solubility in Labrafac CC” value was determined as 2 % w/w, the “Solubility in Miglyol 810 N” value is listed as 3.9 % w/w and the “Solubility in Tricaprylin” value came out at 7 % w/w.
The like results for `CC(=O)O[C@H]1C(=O)[C@@]2(C)[C@H]([C@H](OC(=O)c3ccccc3)[C@]3(O)C[C@H](OC(=O)[C@H](O)[C@@H](NC(=O)c4ccccc4)c4ccccc4)C(C)=C1C3(C)C)[C@]1(OC(C)=O)CO[C@@H]1C[C@@H]2O` [Paclitaxel, paclitaxel] were, in that order, 1.6 % w/w, 2.7 % w/w and 6 % w/w.
